Tests used:
[1] = tested on: Staphylococcus aureus ATCC 6538P; test: Electrophoresis followed by bioactivity on Staphylococcus aureus assay plate; type: cell-based; conditions: after incubation of 890A10 with cell sonicate and electrophoresis at pH 7.1; 37° C., 18 hours
Experimental: The flasks are shaken at 28° C. on a 220 rpm (2" throw) shaker for 4 days. A 30 ml. portion from each flask is centrifuged for 15 minutes at 8,000 rpm. The supernatant portion is removed, leaving only enough to form a thick suspension of cells and media solids. Half of the suspension is subjected to ultrasonic disruption using a Branson Instrument Model LS-75 Sonifier with a 1/2 inch probe. The input power is set at position No. 4, and four successive 15 second cycles of irradiation are used, while chilling the suspension in ice water during and between disruption. To test for the presence of N-acetyl-890A10 amidohydrolase activity, a 10-μl. portion of the sonicate is mixed with 25 μl. of an 890A10 solution containing 500 μg. per ml. Controls containing antibiotic and buffer alone; and sonicated cells and buffer without antibiotic are also run. After incubation overnight at 28° C., 10 μl. quantities are applied to Schleicher and Schuell No. 2043-B paper. Using 0.03 M potassium phosphate buffer pH 7.1, a voltage gradient of 50 volts/cm. is applied for 30 minutes. The paper is placed on a Staphylococcus aureus ATCC 6538P plate and incubated at 37° C. for 18 hours. […]
The flask is shaken at 28° C. on a 220 rpm (2-inch throw) shaker for four days. […] After incubation overnight at 28° C., 10-μl. quantities are applied to Schleicher & Schuell No. 2043-B paper. […]

[2] = Stability under acidic conditions in aqueous solution; type: physicochemical
[3] = tested on: Vibrio percolans ATCC 8461; test: Assay for 890 Assay Units, agar plate disc-diffusion method, cephaloridine as standard; type: cell-based; conditions: 25 mm. zone of inhibition on a 5 ml. plate
Experimental: II. Assay Procedure for Determining "890 Assay Units" A conventional agar plate disc-diffusion method is employed using Vibrio percolans ATCC 8461 as tester organism. Cephaloridine is employed as a standard. Plates containing Vibrio percolans ATCC 8461 are prepared as follows. A culture of Vibrio percolans ATCC 8461 is incubated in nutrient broth-yeast extract overnight on a rotary shaker at 28° C. and then diluted to a density of 60% transmittance at 660 nm. A 33.2 ml. portion of this diluted culture is added to 1 liter of a medium composed of nutrient agar plus 0.2% yeast extract maintained at 46° C. The inoculated agar-containing medium is poured into 100×15 mm. plastic-petri dishes, 10 ml. per dish, chilled, and maintained at 2°-4° C. for up to 5 days before use. The concentration of cephaloridine which is equivalent to 1 unit/ml. of 890A1 is determined by assay on plates prepared as above, but containing 5 ml. of inoculated medium per plate, as follows. Four concentrations of cephaloridine constitute the standard--3.12, 6.25, 12.5 and 25 mcg per ml. with the 12.5 mcg per ml. as a reference solution. The zone diameters on a 5 ml. plate for the standard are as follows: A unit is defined as the amount of antibiotic per ml. producing a 25 mm. zone of inhibition on a 5 ml. plate as described in section I above. […]

[4] = tested on: gram-positive and gram-negative bacteria; test: Antibacterial activity (general statement); type: cell-based; conditions: no test values printed

Row | stability under acidic conditions [2] | Structure (SMILES) | bioactive spot on Staphylococcus aureus plate [1] | concentration considered equivalent to 1 unit of 890A1 per ml [3] | antibacterial activity [4]
1 | unstable | CC(=O)NCCSC1=C(C(=O)O)N2C(=O)C(C(C)OS(=O)(=O)O)C2C1 (centres unmarked) [890A10] | bioactive |  | 
2 |  | O=C(Cc1cccs1)N[C@@H]1C(=O)N2C(C(=O)[O-])=C(C[n+]3ccccc3)CS[C@H]12 [cephaloridine] |  | 12.5 mcg per ml. | 
3 |  | CC(OS(=O)(=O)O)C1C(=O)N2C(C(=O)O)=C(SCCN)CC12 (centres unmarked) [desacetyl 890A10] | bioactive |  | active against various gram-positive and gram-negative bacteria

From patent US4264734A, “Process for producing antibiotic desacetyl 890A10” (Merck & Co., Inc., priority 1979, dated 1981)
